Source: patent publication US20050192245A1, “Medicinal composition for treating arteriosclerosis” (SANKYO COMPANY, LIMITED, priority 2002, published 2005)

System: atherogenic lesions of the right femoral artery (arteriosclerosis)
Assay: Atherogenic lesions in cholesterol diet-loaded rabbits with Nylon thread-induced chronic endothelial damage (right femoral artery)
Assay type: in vivo, male New Zealand White rabbits
Details: oral, 8 weeks
Method: A test was conducted in which male New Zealand White rabbits (body weights: 1.0 to 1.5 kg) were loaded for 10 weeks with a cholesterol diet (0.5% cholesterol, 3% peanut oil and 3% coconut oil) in the amounts indicated below. The animals were fed 40 g for the first two weeks, 50 g for the next four weeks, and 60 g for the final four weeks. Two weeks after cholesterol diet loading, a Nylon thread was aseptically inserted from the right femoral artery to the vicinity of the diaphragm to induce chronic endothelial damage in the abdominal aorta and right femoral artery. The Nylon thread was immobilized for 8 weeks at the insertion site. Following surgery to insert the Nylon thread, the animals were grouped so that the average values of serum total cholesterol, triglycerides, platelet aggregation and body weight of each group were nearly equal, followed by oral administration of the ADP receptor antagonist and the ACAT inhibitor either alone or combined. After necrotomy of the animals 8 weeks after administration, the right femoral arteries were excised and the ratio of the surface area covered by atherogenic lesions was calculated. After exposing the right femoral artery (by 1 cm from the branch of the iliac artery), it was photographed with a digital camera (COOLPX990, Nikon) followed by measurement of the surface area of the lumen and the surface area covered by atherogenic lesions using an image analyzer, and calculation of the ratio of the surface area covered by atherogenic lesions relative to the surface area of the aorta lumen as a percentage. In addition, a section 1 cm from the branch of the iliac artery on the side of the femoral artery was cut out and after fixing in methanol-carnoy solution, was embedded in a paraffin block. After slicing into thin sections, the sections were immunostained using Elastica-Masson stain and anti-human α-actin antibody (1A4) followed by calculating the degree of medial intimal thickness and the smooth muscle cell occupancy rate using an image analyzer. In the table, Compound A represent 2-acetoxy-5-(α-cyclopropylcarbonyl-2-fluorobenzyl)-4,5,6,7-tetrahydrothieno[3,2-c]pyridine, and Compound B represents sulfate of N-(1-octyl-5-carboxymethyl-4,6-dimethylindolin-7-yl)-2,2-dimethylpropanamide.

## CCCCCCCCN1CCc2c(C)c(CC(=O)O)c(C)c(NC(=O)C(C)(C)C)c21.O=S(=O)(O)O [Compound B, sulfate of N-(1-octyl-5-carboxymethyl-4,6-dimethylindolin-7-yl)-2,2-dimethylpropanamide]
Compound B 3 mg/kg
  Medial intimal thickness (%): 60.0 ± 34.2 %
  Ratio of lesion surface area (%): 40.6 ± 19.8 %
  Smooth muscle cell occupancy rate (%): 25.6 ± 14.8 %

## CC(=O)Oc1cc2c(s1)CCN(C(C(=O)C1CC1)c1ccccc1F)C2 (stereo not drawn) [Compound A, 2-acetoxy-5-(α-cyclopropylcarbonyl-2-fluorobenzyl)-4,5,6,7-tetrahydrothieno[3,2-c]pyridine]
Compound A 1 mg/kg
  Medial intimal thickness (%): 275.4 ± 153.4%
  Ratio of lesion surface area (%): 47.2 ± 14.2%
Oryctolagus cuniculus, 1344 h, Compound A 1 mg/kg
  Smooth muscle cell occupancy rate in lesion at 1 mg/kg: 5.5 ± 1.5%
